According to patent publication US20080107623A1, “Inhibitors of Hepatitis C Virus” (Bristol-Myers Squibb Company, priority 2006, published 2008):
Like-named read-outs stand apart in the source and are kept apart here.

How the values were obtained:
[1] = system: human pancreatic chymotrypsin; experiment: Specificity assay, chymotrypsin (pNA substrate); assay type: biochemical
Protocol: The specificities of compounds of the present disclosure were determined against a variety of serine proteases: human neutrophil elastase (HNE), porcine pancreatic elastase (PPE) and human pancreatic chymotrypsin and one cysteine protease: human liver cathepsin B. In all cases, a 96-well plate format protocol using colorimetric p-nitroaniline (pNA) substrate or fluorometric Amino-Methyl-Coumarin (AMC) substrate, specific for each enzyme was used as described previously (PCT Patent Application No. WO 00/09543) with some modifications. All enzymes were purchased from Sigma or EMDbiosciences while the substrates were from Bachem.
Each pNA assay included a 2 h enzyme-inhibitor pre-incubation at room temperature followed by addition of substrate and hydrolysis to ˜15% conversion as measured on a Spectramax Pro microplate reader. The cathepsin B assay was initiated by adding substrate to a 10 min enzyme-inhibitor pre-incubation at room temperature, and the assay plate measured immediately using the Cytofluor Series 4000. Compound concentrations varied from 100 to 0.4 μM depending on their potency.
50 mM Tris(hydroxymethyl)aminomethane hydrochloride (Tris-HCl) pH 8, 0.5 M Sodium Sulfate (Na2SO4), 50 mM NaCl, 0.1 mM EDTA, 3% DMSO, 0.01% Tween-20 with: […]
The percentage of inhibition was calculated using the formula: [1−((UVinh−UVblank)/(UVctl−UVblank))]×100 […]

[2] = system: HCV replicon in HUH-7 cells; experiment: HCV replicon FRET assay; assay type: cell-based, HCV strain 1b; details: Hepatitis C virus
From the text: An HCV replicon whole cell system was established as described by Lohmann V, Korner F, Koch J, Herian U, Theilmann L, Bartenschlager R., Science 285(5424):110-3 (1999). This system enabled us to evaluate the effects of our HCV Protease compounds on HCV RNA replication. Briefly, using the HCV strain 1b sequence described in the Lohmann paper (Assession number: AJ238799), an HCV cDNA was synthesized by Operon Technologies, Inc. (Alameda, Calif.), and the full-length replicon was then assembled in plasmid pGem9zf(+) (Promega, Madison, Wis.) using standard molecular biology techniques. The replicon consists of (i) the HCV 5′ UTR fused to the first 12 amino acids of the capsid protein, (ii) the neomycin phosphotransferase gene (neo), (iii) the IRES from encephalomyocarditis virus (EMCV), and (iv) HCV NS3 to NS5B genes and the HCV 3′ UTR. Plasmid DNAs were linearized with ScaI and RNA transcripts were synthesized in vitro using the T7 MegaScript transcription kit (Ambion, Austin, Tex.) according to manufacturer's directions. In vitro transcripts of the cDNA were transfected into the human hepatoma cell line, HUH-7. […] Resulting cell lines were characterized for positive and negative strand RNA production and protein production over time.
The HCV replicon FRET assay was developed to monitor the inhibitory effects of compounds described in the disclosure on HCV viral replication. HUH-7 cells, constitutively expressing the HCV replicon, were grown in Dulbecco's Modified Eagle Media (DMEM) (Gibco-BRL) containing 10% Fetal calf serum (FCS) (Sigma) and 1 mg/ml G418 (Gibco-BRL). Cells were seeded the night before (1.5×10^4 cells/well) in 96-well tissue-culture sterile plates. Compound and no compound controls were prepared in DMEM containing 4% FCS, 1:100 Penicillin/Streptomysin (Gibco-BRL), 1:100 L-glutamine and 5% DMSO in the dilution plate (0.5% DMSO final concentration in the assay). Compound/DMSO mixes were added to the cells and incubated for 4 days at 37° C. After 4 days, cells were first assessed for cytotoxicity using alamar Blue (Trek Diagnotstic Systems) for a CC50 reading. The toxicity of compound (CC50) was determined by adding 1/10th volume of alamar Blue to the media incubating the cells. After 4 hours, the fluorescence signal from each well was read, with an excitation wavelength at 530 nm and an emission wavelength of 580 nm, using the Cytofluor Series 4000 (Perspective Biosystems). Plates were then rinsed thoroughly with Phosphate-Buffered Saline (PBS) (3 times 150 μl). The cells were lysed with 25 μl of a lysis assay reagent containing an HCV protease substrate (5× cell Luciferase cell culture lysis reagent (Promega #E153A) diluted to 1× with distilled water, NaCl added to 150 mM final, the FRET peptide substrate (as described for the enzyme assay above) diluted to 10 μM final from a 2 mM stock in 100% DMSO. […]. The plate was then placed into the Cytofluor 4000 instrument which had been set to 340 nm excitation/490 nm emission, automatic mode for 21 cycles and the plate read in a kinetic mode. EC50 determinations were carried out as described for the IC50 determinations.

## COc1c(O[C@@H]2C[C@H]3C(=O)N[C@]4(C(=O)NS(=O)(=O)C5CC5)C[C@H]4/C=C\CCCCC[C@H](NC(=O)OC(C)(C)C)C(=O)N3C2)ccc2c(Cl)nccc12 [Compound 3]
[1]
  IC50: > 100000 nM
[2]; 96 h, HUH-7 replicon cells, 4 days, read-out: EC50 in the replicon FRET assay
  EC50: 14.6 nM
[2]; Huh-7, HCV replicon, which replicon assay not stated, read-out: EC50 Activity Range
  EC50: < 100 nM
